What was measured:
[1] = tested on: parvalbumin-positive interneurons; assay: Spontaneous IPSC recordings from parvalbumin-positive interneurons in acute hippocampal slices; type: cell-based; conditions: bath-applied, 10 μM; acute mouse hippocampal slices, area CA1
Procedure: Mice were anesthetized and decapitated, after which the brain was quickly removed and placed into oxygenated, ice-cold, high-sucrose artificial cerebrospinal fluid (hsACSF), containing (in mM): 150 sucrose, 50 NaCl, 25 NaHCO3, 10 dextrose, 2.5 KCl, 1 NaH2PO4·H2O, 0.5 CaCl2), and 7 MgCl2. After 2 min in hsACSF, the brain was blocked, glued to the stage of a Vibratome (VTS1000; Leica, Bannockburn, IL), and cut into 300-μm horizontal brain slices containing hippocampus. Slices were then placed in a chamber containing ACSF (in mM: 124 NaCl, 3 KCl, 1.25 NaH2PO4·H2O, 2 MgSO4·7H2O, 26 NaHCO3, 10 dextrose, and 2 CaCl2)). […]
For recording, slices were placed in a submerged recording chamber (Warner Instruments, Hamden, CT) with oxygenated ACSF heated to 32° C. and flowing at 2-4 ml/min. […] Data were obtained using an Axopatch 1D amplifier (Axon Instruments, Foster City, CA); data were digitized at 10 kHz and recorded using a Digidata 1320A and pClamp 8.2 software (Molecular Devices, Sunnyvale, CA). […] After obtaining a stable voltage-clamp recording from a CA1 interneuron, the recording was switched to current-clamp mode and injected steps of hyperpolarizing and depolarizing current were used to determine the class of cell being recorded using published firing patterns and action potential (AP) properties (Butt et al., 2005; Flames and Marin, 2005). […]

[2] = tested on: prelimbic or infralimbic cortex of the mPFC; assay: In vivo recordings from prelimbic or infralimbic cortex, spike-spike synchronization; set-up: species or system mouse; conditions: systemic application (intraperitoneally); n=9 mice; FIG. 8
Procedure: C57BL/6J mice aged 10-11 weeks were anesthetized with isofluorane (induction: 3%, maintenance approximately 1.5%). Buprenorphin (0.05-0.1 mg/kg body weight) and Carprofen (4-5 mg/kg body weight) were injected for analgesia. During implantation, the body temperature was maintained with a heating pad. The skin was incised from the cerebellum to the nose and the bone cleaned with 3% H2O2. Ground and reference screws (1 mm diameter) were inserted anterior to the lambdoid suture. A third stabilizing screw was inserted on the left parietal bone. A microdrive loaded with 8 tetrodes made from tungsten wire (California Fine Wire Company) was inserted in the right prefrontal cortex at the coordinates AP+1.9, ML 0.4, DV−1.2 (from brain surface). The craniotomy was protected with vaseline and the microdrive fixed to the skull using dental cement. After the surgery, the mice were injected with buprenorphin and carprofen subcutaneously for 48 h hours and housed individually.
Local field potential were recorded with a wireless amplifier system (W4, Multichannel Systems) 2-21 days after surgery at a sampling rate of 2 kHz or with a wired recording system (RHD2000, Intan Technologies, sampling rate 10 kHz) on freely moving mice. Single-unit activity was recorded at 20-30 kHz using a 32-channel amplifier system (RHD2000, Intan Technologies). […]

Compound: C[N+](C)(C)CCCCC(=O)[O-] [NNN-trimethyl-5-aminovalerate, 5-(trimethylammonio) pentanoate]
- frequencies of spontaneous IPSCs (spIPSCs) in parvalbumin-positive interneurons [1]: increase
- spike-spike-synchronization [2]: enhanced

Reference: patent US20260276656A1, “GUT MICROBIOTA-RELATED METHODS FOR TREATING DEMENTIA AND AGE-DEPENDENT COGNITIVE DECLINE” (Albert-Ludwigs-Universitat Freiburg, priority 2019, published 2026)
